Patent US11299487B2, “Compounds and compositions as modulators of TLR signaling” (Neuropore Therapies, Inc., priority 2019, dated 2022)

Legend:
human TLR2 [1] = target: T1, human TLR2 (Homo sapiens, UniProt O60603); test: HEK-Blue hTLR2 antagonism assay (SEAP reporter) with agonist Pam2CSK4 (TLR2/6 agonist); assay type: cell-based; settings: HEK-Blue hTLR2 cells, ~3×EC50 Pam2CSK4, 18 h, SEAP OD 655 nm, 8-point dilutions
T1 construct: host or cells: HEK-Blue hTLR2 (HEK-293)
Description: (§1) Synthetic diacylated lipoprotein (Pam2CSK4, TLR2/6 agonist) and synthetic triacylated lipoprotein (Pam3CSK4, TLR1/2 agonist) were obtained from InvivoGen and were dissolved in endotoxin-free water to a concentration 1 mg/mL, vortexed until complete solubilization, and stored in aliquots at −20° C. Prior to addition to cells, an aliquot of the dissolved ligand was vortexed shortly and then was diluted in medium to 25 ng/mL Pam2CSK4 or 1000 ng/mL Pam3CSK4.
(§2) Test compounds were solubilized fresh to 10-20 mM stocks in DMSO and sonicated for 5-10 minutes in a water bath sonicator. Serial dilutions were prepared in DMSO, and then diluted in medium. The final concentration of DMSO used in the assay was 1%.
(§3) HEK-Blue hTLR2 reporter cells (InvivoGen) are HEK-293 cells stably expressing both the human TLR2 gene and a secreted embryonic alkaline phosphatase (SEAP) reporter construct downstream of NFκB promotor sites. HEK-Blue hTLR2 reporters were cultured according to manufacturer's protocol using Dulbecco's Modified Eagle Medium (DMEM; Gibco) containing 1× GlutaMax (Gibco), 10% heat-inactivated Fetal Bovine Serum (Gibco), Pen-Strep (50 U/mL penicillin, 50 μg/mL streptomycin, Gibco), 100 μg/mL Normocin (InvivoGen), and the selective antibiotic, 1×HEK-Blue Selection (InvivoGen). Quanti-Blue reagent (InvivoGen) for detection and quantification of secreted alkaline phosphatase was dissolved in 100 mL of endotoxin-free water, warmed to 37° C. for 30 minutes and then filtered using a 0.2 μm membrane.
(§4) On day 1, 50 μL of each test compound dilution in duplicates or a vehicle control was added to each well of a 96-well plate followed by addition of 150 μL of HEK-Blue hTLR2 cell suspension (1×10^5 cells/well) and incubated at 37° C./5% CO2 for 2 h. Next, 50 μL of an approximate 3×EC50 concentration of each agonist (Pam2CSK4 or Pam3CSK4) was added to the wells containing test compounds or the vehicle control. The plates were then incubated at 37° C./5% CO2 for 18 h. For each assay run, non-treated HEK-Blue hTLR2 cells were treated with serial dilutions of agonists to determine EC50 values for the respective run.
(§5) On day 2, secreted alkaline phosphatase (SEAP) activity was detected in cell culture supernatants. In brief, 20 μL was collected from each well and transferred to a 96-well plate. Next, 200 μL of Quanti-Blue detection reagent was added to each well. Plates were incubated at room temperature for 15 min. and SEAP activity was assessed by spectrophotometer OD reading at 655 nm. […] IC50 values were calculated based on 8-point dilutions for each compound.

human TLR2 [2] = target: T1, human TLR2; test: HEK-Blue hTLR2 antagonism assay (SEAP reporter) with agonist Pam3CSK4 (TLR1/2 agonist); assay type: cell-based; settings: HEK-Blue hTLR2 cells, ~3×EC50 Pam3CSK4, 18 h, SEAP OD 655 nm, 8-point dilutions
Description: as §1, §2, §3, §4, §5

T1 sequence (O60603 21-784): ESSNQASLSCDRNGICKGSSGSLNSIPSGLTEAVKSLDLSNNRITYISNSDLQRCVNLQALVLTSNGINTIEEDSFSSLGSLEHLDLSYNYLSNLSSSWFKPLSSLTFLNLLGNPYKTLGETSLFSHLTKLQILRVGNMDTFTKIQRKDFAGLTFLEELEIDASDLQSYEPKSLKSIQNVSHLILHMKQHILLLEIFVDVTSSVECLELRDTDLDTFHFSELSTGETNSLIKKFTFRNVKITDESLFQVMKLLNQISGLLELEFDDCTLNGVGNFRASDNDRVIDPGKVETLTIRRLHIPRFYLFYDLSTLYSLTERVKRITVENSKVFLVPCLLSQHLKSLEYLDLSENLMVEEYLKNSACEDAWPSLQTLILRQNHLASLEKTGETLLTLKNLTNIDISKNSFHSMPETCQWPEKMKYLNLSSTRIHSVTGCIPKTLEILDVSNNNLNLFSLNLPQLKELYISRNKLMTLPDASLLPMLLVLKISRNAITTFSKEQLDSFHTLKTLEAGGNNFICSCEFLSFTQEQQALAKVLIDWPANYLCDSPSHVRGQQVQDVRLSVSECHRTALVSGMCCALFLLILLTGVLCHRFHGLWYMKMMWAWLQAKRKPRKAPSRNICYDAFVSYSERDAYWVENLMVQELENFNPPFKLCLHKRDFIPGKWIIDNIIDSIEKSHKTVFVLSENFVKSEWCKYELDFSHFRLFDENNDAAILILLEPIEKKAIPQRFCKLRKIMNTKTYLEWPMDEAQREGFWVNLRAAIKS

| SMILES | IC50 (human TLR2 [1]; Table A) [µM] | IC50 (human TLR2 [2]; Table A) [µM] | IC50 (human TLR2 [1]; Table B) [µM] | IC50 (human TLR2 [2]; Table B) [µM] |
| --- | --- | --- | --- | --- |
| COc1cc(-c2cnn(-c3ccc(F)cc3)c2)cc(C=O)c1O [Compound A6, 5-(1-(4-fluorophenyl)-1H-pyrazol-4-yl)-2-hydroxy-3-methoxybenzaldehyde] | 14.1 | 12 |  |  |
| O=Cc1cc(NC(=O)Nc2ccc(F)cc2)cc(F)c1O [Compound B64, 1-(3-fluoro-5-formyl-4-hydroxyphenyl)-3-(4-fluorophenyl)urea] |  |  | 10.9 | 8 |
| CC1(C)CCN(c2ccc(-c3nsc(-c4cc(F)c(O)c(C=O)c4)n3)cc2)C1 [Compound A100, 5-(3-(4-(3,3-dimethylpyrrolidin-1-yl)phenyl)-1,2,4-thiadiazol-5-yl)-3-fluoro-2-hydroxybenzaldehyde] | 1.4 | 0.6 |  |  |
| O=Cc1cc(C(=O)Nc2ccc(C(F)(F)F)cc2)cc(F)c1O [Compound B13, 3-fluoro-5-formyl-4-hydroxy-N-(4-(trifluoromethyl)phenyl)benzamide] |  |  | 1.9 | 1.9 |
| O=Cc1cc(C#Cc2ccc(C(=O)NC3CC3)cc2)cc(F)c1O [Compound B80, N-cyclopropyl-4-((3-fluoro-5-formyl-4-hydroxyphenyl)ethynyl)benzamide] |  |  | 15.5 | 35.9 |
| O=Cc1cc(-c2ccn(-c3ccc(N4CCCCC4)cc3)n2)cc(F)c1O [Compound A28, 3-fluoro-2-hydroxy-5-(1-(4-(piperidin-1-yl)phenyl)-1H-pyrazol-3-yl)benzaldehyde] | 0.9 | 0.8 |  |  |
| COc1cc(-c2cnn(-c3cccc(Cl)c3)c2)cc(C=O)c1O [Compound A3, 5-(1-(3-chlorophenyl)-1H-pyrazol-4-yl)-2-hydroxy-3-methoxybenzaldehyde] | 9.9 | 8.3 |  |  |
| O=Cc1cc(-c2cnc(-c3ccc(N4CC5(CCC5)C4)cc3)s2)cc(F)c1O [Compound A116, 5-(2-(4-(2-azaspiro[3.3]heptan-2-yl)phenyl)thiazol-5-yl)-3-fluoro-2-hydroxybenzaldehyde] | 1.3 | 0.6 |  |  |
| O=Cc1cc(-c2cnn(-c3ccc(N4CCOCC4)cc3)c2)cc(F)c1O [Compound A21, 3-fluoro-2-hydroxy-5-(1-(4-morpholinophenyl)-1H-pyrazol-4-yl)benzaldehyde] | 2.6 | 1.1 |  |  |
| O=Cc1cc(C(=O)Nc2cnc(N3CCCC3)nc2)cc(F)c1O [Compound B59, 3-fluoro-5-formyl-4-hydroxy-N-(2-(pyrrolidin-1-yl)pyrimidin-5-yl)benzamide] |  |  | 32.7 | 19.8 |
| Oc1c(F)cc(-c2cnn(-c3ccc(N4CCCC4)cc3)c2)cc1/C=N/N1CCN(C2CC2)CC1 [Compound A36, (E)-2-(((4-cyclopropylpiperazin-1-yl)imino)methyl)-6-fluoro-4-(1-(4-(pyrrolidin-1-yl)phenyl)-1H-pyrazol-4-yl)phenol] | > 100 | > 100 |  |  |
| COc1cc(C#Cc2ccc(N3CCOCC3)cc2)cc(C=O)c1O [Compound B8, 2-hydroxy-3-methoxy-5-((4-morpholinophenyl)ethynyl)benzaldehyde] |  |  | 2.9 | 1.6 |
| O=Cc1cc(C(=O)Nc2ccc(N3CCc4ccccc4C3)cc2)cc(F)c1O [Compound B82, N-(4-(3,4-dihydroisoquinolin-2(1H)-yl)phenyl)-3-fluoro-5-formyl-4-hydroxybenzamide] |  |  | 1.2 | 0.7 |
| O=Cc1cc(-c2cnc(-c3cccc(N4CCCC4)c3)s2)cc(F)c1O [Compound A101, 3-fluoro-2-hydroxy-5-(2-(3-(pyrrolidin-1-yl)phenyl)thiazol-5-yl)benzaldehyde] | 3.2 | 1 |  |  |
| O=Cc1cc(C(=O)Nc2ccc(N3CC4(CC4)CC3=O)cc2)cc(F)c1O [Compound B78, 3-fluoro-5-formyl-4-hydroxy-N-(4-(6-oxo-5-azaspiro[2.4]heptan-5-yl)phenyl)benzamide] |  |  | 34.4 | 18.5 |
| Oc1c(F)cc(-c2cnn(-c3ccc(N4CCCC4)cc3)c2)cc1/C=N/Oc1ccccc1 [Compound A40, (E)-3-fluoro-2-hydroxy-5-(1-(4-(pyrrolidin-1-yl)phenyl)-1H-pyrazol-4-yl)benzaldehyde O-phenyl Oxime] | 7.2 | 2.7 |  |  |

| SMILES | IC50 (human TLR2 [1]; Table A) [µM] | IC50 (human TLR2 [2]; Table A) [µM] | IC50 (human TLR2 [1]; Table B) [µM] | IC50 (human TLR2 [2]; Table B) [µM] |
| --- | --- | --- | --- | --- |
| O=Cc1cc(-c2csc(-c3ccc(N4CCCCC4)nc3)n2)cc(F)c1O [Compound A126, 3-fluoro-2-hydroxy-5-(2-(6-(piperidin-1-yl)pyridin-3-yl)thiazol-4-yl)benzaldehyde] | 1.1 | 0.6 |  |  |
| O=Cc1c(O)cc(C#Cc2ccc(N3CCOCC3)cc2)cc1F [Compound B6, 2-fluoro-6-hydroxy-4-((4-morpholinophenyl)ethynyl)benzaldehyde] |  |  | 3.8 | 1.8 |
| O=Cc1cc(-c2cnn(-c3ccc(N4CCCCC4)cc3)c2)cc(F)c1O [Compound A20, 3-fluoro-2-hydroxy-5-(1-(4-(piperidin-1-yl)phenyl)-1H-pyrazol-4-yl)benzaldehyde] | 0.5 | 0.2 |  |  |
| O=Cc1cc(NC(=O)Nc2ccccc2)cc(F)c1O [Compound B10, 1-(3-fluoro-5-formyl-4-hydroxyphenyl)-3-phenylurea] |  |  | 11.6 | 7.2 |
| O=Cc1cc(-c2cnc(-c3ccc(N4CCCC4)nc3)s2)cc(F)c1O [Compound A102, 3-fluoro-2-hydroxy-5-(2-(6-(pyrrolidin-1-yl)pyridin-3-yl)thiazol-5-yl)benzaldehyde] | 1.9 | 1 |  |  |
| O=Cc1cc(-c2csc(-c3cccc(N4CCCC4)c3)n2)cc(F)c1O [Compound A124, 3-fluoro-2-hydroxy-5-(2-(3-(pyrrolidin-1-yl)phenyl)thiazol-4-yl)benzaldehyde] | 1.7 | 1 |  |  |
| O=Cc1cc(C(=O)Nc2ccc(N3C4CCC3CC4)cc2)cc(F)c1O [Compound B95, N-(4-(7-azabicyclo[2.2.1]heptan-7-yl)phenyl)-3-fluoro-5-formyl-4-hydroxybenzamide] |  |  | 3.7 | 2.8 |
| O=Cc1cc(C(=O)Nc2ccc(N3CCCCC3)cc2)cc(F)c1O [Compound B66, 3-fluoro-5-formyl-4-hydroxy-N-(4-(piperidin-1-yl)phenyl)benzamide] |  |  | 1.8 | 1 |
| O=Cc1cc(-c2cnc(-c3ccccc3)s2)ncc1O [Compound A99, 5-hydroxy-2-(2-phenylthiazol-5-yl)isonicotinaldehyde] | 3.3 | 2.2 |  |  |
| O=Cc1cc(-c2csc(-c3ccc(Cl)cc3)n2)cc(F)c1O [Compound A92, 5-(2-(4-chlorophenyl)thiazol-4-yl)-3-fluoro-2-hydroxybenzaldehyde] | 3.5 | 0.9 |  |  |
| O=Cc1cc(-c2csc(-c3ccc(N4CCCC4)nc3)n2)cc(F)c1O [Compound A123, 3-fluoro-2-hydroxy-5-(2-(6-(pyrrolidin-1-yl)pyridin-3-yl)thiazol-4-yl)benzaldehyde] | 1.7 | 1.5 |  |  |
| O=Cc1cc(-c2cnc(-c3ccc(N4CCCCC4)nc3)s2)cc(F)c1O [Compound A127, 3-fluoro-2-hydroxy-5-(2-(6-(piperidin-1-yl)pyridin-3-yl)thiazol-5-yl)benzaldehyde] | 1.2 | 0.7 |  |  |
| O=Cc1cc(-c2ccn(-c3cccc(N4CCCCC4)c3)n2)cc(F)c1O [Compound A31, 3-fluoro-2-hydroxy-5-(1-(3-(piperidin-1-yl)phenyl)-1H-pyrazol-3-yl)benzaldehyde] | 3.4 | 6.2 |  |  |
| O=Cc1cc(-c2nsc(-c3cccc(N4CCCC4)c3)n2)cc(F)c1O [Compound A125, 3-fluoro-2-hydroxy-5-(5-(3-(pyrrolidin-1-yl)phenyl)-1,2,4-thiadiazol-3-yl)benzaldehyde] | 3.3 | 2 |  |  |
| O=Cc1cc(-c2ncc(-c3ccccc3)o2)cc(F)c1O [Compound A89, 3-fluoro-2-hydroxy-5-(5-phenyloxazol-2-yl)benzaldehyde] | > 100 | > 100 |  |  |
